Tests used:
Type in all cases: cell-based
[1] = target: T1, Ba/F3 cells CD74-ROS1 G2032R (Homo sapiens, UniProt P08922, G2032R); test: Ba/F3 cell proliferation assay, CD74-ROS1 G2032R; conditions: 72 hours, CellTiter-Glo
T1 construct: fusion of the C-terminus of ROS1 with the N-terminus of various partner proteins; host or cells: Ba/F3 (RIKEN), retroviral pMSCV-puro; the other entry of the earlier key: CD74 (P04233, HLA class II histocompatibility antigen gamma chain)
Experimental: The virus was used to infect Ba/F3 cells (RIKEN) at multiplicity of infection=1 for 1 day. Infected cells were rescued in media (RPMI-1640 with 10% fetal bovine serum and 1% streptomycin and penicillin) supplemented with mouse IL-3 (10 ng/mL) for 2 days, and stable cell lines were selected by IL-3 withdrawal and puromycin (0.8 μg/mL) for 7 days. Monoclones were selected by single-cell dilution in IL-3-free medium containing puromycin (0.8 μg/mL).
(§1) Cell Proliferation Assay Stable cells were plated at 1,000 cells/well (40 μL) in a 384-well plate for 1 day.
(§2) Test compounds (40 nL) were then added in a 3-fold dilution series using the TECAN EVO200 liquid handler and incubated for 72 hours. Plates were equilibrated at room temperature for 15 minutes followed by addition of 40 μL CellTiter-Glo reagent (Promega).
(§3) Luminescence was measured on a plate reader. Half-maximal inhibitory concentration (IC50) was calculated from percent inhibition and inhibitor concentration using four-parameter logistic regression. […] (nd=not determined).

[2] = test system: TPM3-NTRK1-wt IC50 / primary target IC50 (e.g. CD74-ROS1-wt); test: TRKA selectivity in Ba/F3 cells (TRKA potency divided by primary target potency); conditions: for TPM3-NTRK1-wt/CD74-ROS1-G2032R selectivity ratio: TRKA potency / CD74-ROS1-G2032R potency; for TPM3-NTRK1-wt/EML4-ALK-L1196M-G1202R selectivity ratio: TRKA potency / EML4-ALK-L1196M-G1202R potency; for TPM3-NTRK1-wt/EML4-ALK-wt selectivity ratio: TRKA potency / EML4-ALK-wt potency
Experimental: TRKA selectivity was calculated by dividing a compound's TRKA potency by its primary target potency (e.g. TPM3-NTRK1-wt IC50/CD74-ROS1-wt IC50). Compound selectivity can be interpreted by binning ratio values: bin A for very high selectivity, ratio >30-fold; bin B for high selectivity, ratio >10-fold; bin C for moderate selectivity, ratio ≥1; and bin D for low selectivity, ratio <1. […] (nd=not determined).

[3] = target: T2, Ba/F3 cells EML4-ALK L1196M/G1202R (variant 1) (Homo sapiens, UniProt Q9UM73, G1202R/L1196M); test: Ba/F3 cell proliferation assay, EML4-ALK L1196M/G1202R (variant 1); conditions: 72 hours, CellTiter-Glo
T2 construct: echinoderm microtubule-associated protein-like 4 (EML4) gene and the ALK tyrosine kinase domain; host or cells: Ba/F3 (RIKEN), retroviral pMSCV-puro; the other entry of the earlier key: EML4 (Q9HC35, Echinoderm microtubule-associated protein-like 4)
T2 sequence (Q9UM73 with tags, fused parts or gaps L1196M/G1202R): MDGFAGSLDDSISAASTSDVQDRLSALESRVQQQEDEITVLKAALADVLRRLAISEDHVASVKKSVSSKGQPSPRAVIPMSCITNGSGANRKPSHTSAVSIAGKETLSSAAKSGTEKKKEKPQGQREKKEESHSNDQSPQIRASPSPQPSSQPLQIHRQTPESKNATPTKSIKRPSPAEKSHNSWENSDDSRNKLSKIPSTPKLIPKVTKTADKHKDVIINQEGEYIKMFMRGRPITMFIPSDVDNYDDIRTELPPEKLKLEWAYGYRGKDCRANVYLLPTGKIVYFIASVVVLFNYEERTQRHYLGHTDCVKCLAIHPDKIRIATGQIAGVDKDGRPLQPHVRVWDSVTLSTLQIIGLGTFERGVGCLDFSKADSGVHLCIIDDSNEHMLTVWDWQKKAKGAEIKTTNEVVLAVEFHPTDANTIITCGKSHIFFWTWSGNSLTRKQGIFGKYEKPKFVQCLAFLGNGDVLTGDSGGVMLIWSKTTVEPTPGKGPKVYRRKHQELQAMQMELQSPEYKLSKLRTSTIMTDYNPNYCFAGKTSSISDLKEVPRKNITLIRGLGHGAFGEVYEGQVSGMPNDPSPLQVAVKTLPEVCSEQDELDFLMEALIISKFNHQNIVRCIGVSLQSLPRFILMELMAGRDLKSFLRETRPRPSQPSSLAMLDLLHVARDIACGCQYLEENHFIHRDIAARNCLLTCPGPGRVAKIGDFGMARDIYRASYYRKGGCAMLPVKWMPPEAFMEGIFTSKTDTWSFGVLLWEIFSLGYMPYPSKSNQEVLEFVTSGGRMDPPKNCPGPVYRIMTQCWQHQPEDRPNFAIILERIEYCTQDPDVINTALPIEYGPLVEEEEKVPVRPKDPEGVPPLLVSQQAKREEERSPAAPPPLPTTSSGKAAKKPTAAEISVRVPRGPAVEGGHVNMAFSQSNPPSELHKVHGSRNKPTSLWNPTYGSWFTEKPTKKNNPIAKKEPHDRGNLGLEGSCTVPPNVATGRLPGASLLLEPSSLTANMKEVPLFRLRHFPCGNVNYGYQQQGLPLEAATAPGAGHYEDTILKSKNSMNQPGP
Description: (§4) Genes encoding CD74-ROS1 wild-type (wt), CD74-ROS1 G2032R, CD74-ROS1 S1986F, CD74-ROS1 L2026M, CD74-ROS1 D2033N, EML4-ALK wt (variant 1), EML4-ALK G1202R (variant 1), EML4-ALK L1196M/G1202R (variant 1), EML4-ALK G1202R/G1269A (variant 1), EML4-ALK G1202R/L1198F (variant 1), and TPM3-TRKA were synthesized at GeneRay, cloned into the retroviral construct pMSCV-puro (Biovector), and packaged into retroviral particles. The virus was used to infect Ba/F3 cells (RIKEN) at multiplicity of infection=1 for 1 day. Infected cells were rescued in media (RPMI-1640 with 10% fetal bovine serum and 1% streptomycin and penicillin) supplemented with mouse IL-3 (10 ng/mL) for 2 days, and stable cell lines were selected by IL-3 withdrawal and puromycin (0.8 μg/mL) for 7 days. Monoclones were selected by single-cell dilution in IL-3-free medium containing puromycin (0.8 μg/mL). Transformation of desired genes was confirmed by Sanger sequencing and western blot using the following antibodies: ROS1 (CST #3287), ALK (CST #3633), and pan-TRK (Abcam #76291).
as §1, §2, §3

Ba/F3 cells TPM3-TRKA = target: T3, Ba/F3 cells TPM3-TRKA (Homo sapiens, UniProt P04629); test: Ba/F3 cell proliferation assay, TPM3-TRKA; conditions: 72 hours, CellTiter-Glo, read-out: TPM3-NTRK1-wt IC50
T3 construct: host or cells: Ba/F3 (RIKEN), retroviral pMSCV-puro; the other entry of the earlier key: TPM3 (P06753, Tropomyosin alpha-3 chain)
T3 sequence (P04629 510-796 limits assumed): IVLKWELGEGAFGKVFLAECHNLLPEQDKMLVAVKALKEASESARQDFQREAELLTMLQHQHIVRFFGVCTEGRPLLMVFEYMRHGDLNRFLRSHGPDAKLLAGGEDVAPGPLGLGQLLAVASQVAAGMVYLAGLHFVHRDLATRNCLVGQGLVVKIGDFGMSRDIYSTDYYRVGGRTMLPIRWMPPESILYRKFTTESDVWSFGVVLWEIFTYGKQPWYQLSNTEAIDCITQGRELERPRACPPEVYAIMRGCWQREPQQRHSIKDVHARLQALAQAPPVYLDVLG
Description: as §4, §1, §2, §3

[4] = target: T4, Ba/F3 cells EML4-ALK wt (variant 1) (Homo sapiens, UniProt Q9UM73); test: Ba/F3 cell proliferation assay, EML4-ALK wt (variant 1); conditions: 72 hours, CellTiter-Glo
T4 construct: echinoderm microtubule-associated protein-like 4 (EML4) gene and the ALK tyrosine kinase domain; host or cells: Ba/F3 (RIKEN), retroviral pMSCV-puro; the other entry of the earlier key: EML4 (Q9HC35, Echinoderm microtubule-associated protein-like 4)
T4 sequence (Q9UM73 with tags, fused parts or gaps): as the sequence (Q9UM73 with tags, fused parts or gaps L1196M/G1202R) above, with M635L, R641G counted along it
Description: as §4, §1, §2, §3

T1 sequence (P08922 1883-2347 G2032R limits assumed): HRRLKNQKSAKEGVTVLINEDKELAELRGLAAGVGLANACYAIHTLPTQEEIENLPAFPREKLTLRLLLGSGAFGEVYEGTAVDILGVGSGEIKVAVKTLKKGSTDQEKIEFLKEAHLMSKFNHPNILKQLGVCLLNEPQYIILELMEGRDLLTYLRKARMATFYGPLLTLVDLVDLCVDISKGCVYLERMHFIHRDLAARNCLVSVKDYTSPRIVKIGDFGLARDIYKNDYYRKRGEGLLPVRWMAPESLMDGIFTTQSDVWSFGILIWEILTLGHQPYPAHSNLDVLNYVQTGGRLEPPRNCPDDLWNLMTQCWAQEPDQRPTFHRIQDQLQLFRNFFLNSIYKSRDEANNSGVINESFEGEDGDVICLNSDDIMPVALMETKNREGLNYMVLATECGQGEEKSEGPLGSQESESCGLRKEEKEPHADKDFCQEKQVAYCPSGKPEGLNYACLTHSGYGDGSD

With `CCn1ncc2c1-c1cnc(N)c(c1)O[C@H](C)c1cc(F)ccc1-c1c(ncn1C)C2` [Example 11, (19R)-3-ethyl-16-fluoro-11,19-dimethyl-20-oxa-3,4,9,11,23-pentaazapentacyclo[19.3.1.0^2,^6.0^8,^12.0^13,^18]pentacosa-1(24),2(6),4,8(12),9,13,15,17,21(25),22-decaen-22-amine] the IC50 [1] was 0.1 to 50 nM, the TPM3-NTRK1-wt/CD74-ROS1-G2032R selectivity ratio [2] was “A (bin A for very high selectivity, ratio >30-fold)” and the TPM3-NTRK1-wt/EML4-ALK-L1196M-G1202R selectivity ratio [2] was “B (bin B for high selectivity, ratio >10-fold)”. The IC50 [3] was 50 to 500 nM and the IC50 (Ba/F3 cells TPM3-TRKA) was over 500 nM.

`CCn1ncc2c1-c1cnc(N)c(c1)O[C@H](C)c1cc(F)ccc1-c1c(Cl)cnn1C2` [Example 27, (19R)-11-chloro-3-ethyl-16-fluoro-19-methyl-20-oxa-3,4,8,9,23-pentaazapentacyclo[19.3,1.0^2,^6.0^8,^12.0^13,^18]pentacosa-1(24),2(6),4,9,11,13,15,17,21(25),22-decaen-22-amine] was tested, and the IC50 [1] was 0.1 to 50 nM, the TPM3-NTRK1-wt/CD74-ROS1-G2032R selectivity ratio [2] was “A (bin A for very high selectivity, ratio >30-fold)” and the TPM3-NTRK1-wt/EML4-ALK-L1196M-G1202R selectivity ratio [2] was “C (bin C for moderate selectivity, ratio ≥1)”. The TPM3-NTRK1-wt/EML4-ALK-wt selectivity ratio [2] was “B (bin B for high selectivity, ratio >10-fold)”, the IC50 [4] was 0.1 to 50 nM and the IC50 [3] was 50 to 500 nM. It also gave an IC50 (Ba/F3 cells TPM3-TRKA) of over 500 nM.

For `Cc1nn(CC2CC2)c2c1Cc1nccnc1-c1ccc(F)cc1[C@@H](C)Oc1cc-2cnc1N` [Example 77, (20R)-3-(cyclopropylmethyl)-17-fluoro-5,20-dimethyl-21-oxa-3,4,9,12,24-pentaazapentacyclo[20.3.1.0^2,^6.0^8,^13.0^14,^19]hexacosa-1(25),2(6),4,8(13),9,11,14,16,18,22(26),23-undecaen-23-amine], the IC50 [1] was 0.1 to 50 nM, the TPM3-NTRK1-wt/CD74-ROS1-G2032R selectivity ratio [2] was “A (bin A for very high selectivity, ratio >30-fold)” and the TPM3-NTRK1-wt/EML4-ALK-L1196M-G1202R selectivity ratio [2] was “A (bin A for very high selectivity, ratio >30-fold)”. For the same compound, the TPM3-NTRK1-wt/EML4-ALK-wt selectivity ratio [2] was “A (bin A for very high selectivity, ratio >30-fold)”, the IC50 [4] was 0.1 to 50 nM and the IC50 [3] was 0.1 to 50 nM. It also gave an IC50 (Ba/F3 cells TPM3-TRKA) of over 500 nM.

For `Cc1nc2c(s1)-c1ccc(F)cc1[C@@H](C)Oc1cc(cnc1N)-c1c(C#N)nn(C)c1C2` [Example 68, (19R)-22-amino-16-fluoro-5,10,19-trimethyl-20-oxa-11-thia-4,5,9,23-tetraazapentacyclo[19.3.1.0^2,^6.0^8,^12.0^13,^18]pentacosa-1(24),2(6),3,8(12),9,13,15,17,21(25),22-decaene-3-carbonitrile], the IC50 [1] was 0.1 to 50 nM, the TPM3-NTRK1-wt/CD74-ROS1-G2032R selectivity ratio [2] was “A (bin A for very high selectivity, ratio >30-fold)” and the TPM3-NTRK1-wt/EML4-ALK-L1196M-G1202R selectivity ratio [2] was “C (bin C for moderate selectivity, ratio ≥1)”. For the same compound, the IC50 [3] was 50 to 500 nM and the IC50 (Ba/F3 cells TPM3-TRKA) was over 500 nM.

In the case of `C[C@H]1Oc2cc(cnc2N)-c2c(C#N)nn(C)c2Cc2ncsc2-c2ccc(F)cc21` [Example 57, (19R)-22-amino-16-fluoro-5,19-dimethyl-20-oxa-11-thia-4,5,9,23-tetraazapentacyclo[19.3.1.0^2,^6.0^8,^12.0^13,^18]pentacosa-1(24),2(6),3,8(12),9,13,15,17,21(25),22-decaene-3-carbonitrile], the IC50 [1] is reported as 0.1 to 50 nM, the TPM3-NTRK1-wt/CD74-ROS1-G2032R selectivity ratio [2] is reported as “A (bin A for very high selectivity, ratio >30-fold)” and the TPM3-NTRK1-wt/EML4-ALK-L1196M-G1202R selectivity ratio [2] is reported as “C (bin C for moderate selectivity, ratio ≥1)”. For the same compound, the IC50 [3] was 50 to 500 nM and the IC50 (Ba/F3 cells TPM3-TRKA) was over 500 nM.

With `CCc1onc2c1-c1cnc(N)c(c1)O[C@H](C)c1cc(F)ccc1-c1nn(C)nc1C2` [Example 31, (19R)-3ethyl-16-fluoro-10,19-dimethyl-4,20-dioxa-5,9,10,11,23-pentaazapentacyclo[19.3.1.0^2,^6.0^8,^12.0^13,^18]pentacosa-1(24),2,5,8,11,13,15,17,21(25),22-decaen-22-amine] the IC50 [1] was 0.1 to 50 nM, the TPM3-NTRK1-wt/CD74-ROS1-G2032R selectivity ratio [2] was “A (bin A for very high selectivity, ratio >30-fold)” and the TPM3-NTRK1-wt/EML4-ALK-L1196M-G1202R selectivity ratio [2] was “C (bin C for moderate selectivity, ratio ≥1)”. The IC50 [3] was 50 to 500 nM and the IC50 (Ba/F3 cells TPM3-TRKA) was 50 to 500 nM.

Reference: patent US12054498B2, “Heteroaromatic macrocyclic ether chemotherapeutic agents” (Nuvalent, Inc., priority 2020, dated 2024)
